Source: patent US12473301B2, “Isoquinoline compounds for the treatment of cancer” (Genentech, Inc., priority 2018, dated 2025)

What follows are molecules tested on primary human pan T cells (assay: Human T-Cell IL2 Induction Assay). Details: assayed concentration 0.926 μM; anti-CD3/anti-CD28 stimulation.
Format: cell-based
Method: Assay Principle: Anti-CD3 and anti-CD28 activates TCR signaling in primary human pan T cells leading to IL-2 promoter induction. Secreted IL-2 in cell culture supernatant is detected by electrochemiluminescence using a capture antibody against IL-2 and an anti-IL-2 antibody labeled with SULFO-tag. Also see www.mesoscale.com for additional electrochemiluminescence technology information.
Assay Procedure: Incubate primary human pan T cells with varying concentrations of test compounds for 30 minutes in a humidified incubator at 37° C. and 5% CO2. Transfer cells to a plate pre-coated with a fixed concentration of anti-human CD3 (determined separately for each donor lot) and add soluble anti-human CD28 (final concentration=1 μg/ml). Stimulate cells in a humidified incubator at 37° C. and 5% CO2 for 4 hours. Transfer 25 μl of supernatant to a MSD single spot plate pre-coated with an anti-human IL-2 antibody. Incubate MSD plate overnight at 4° C. with gentle shaking. Wash MSD plate 4× with wash buffer. Add SULFO-tagged detection antibody at a 1:50 dilution and incubate at room temperature shaking for 2 hours. Wash MSD plate 4× with wash buffer and add 150 μl 2×MSD read buffer. Read on an MSD instrument. Normalize data to stimulated/untreated controls to calculate % activity at each concentration of compound.
• Frozen Primary Human Pan-T Cells (StemCell Technologies #70024) • anti-human CD3 (OKT3 clone) (eBioscience #16-0037-81) • anti-human CD28 (CD28.2 clone) (BD #555725) • 96-well Human IL-2 tissue culture kit (MSD #K151AHB-4) Instrumentation: • Biomek FX for liquid handling (Beckman Coulter) • MSD SECTOR S 600 (Meso Scale Discovery)
Exemplary compounds of Formula (I) were tested in the human T-cell IL-2 induction assays. The % increase measured for IL-2 in cells treated by the test compounds relative to untreated cells are provided in Table B2 for certain compounds.

Row | Structure (SMILES) | % IL-2 increase relative to untreated cells [%]
1 | CC[C@@H]1[C@H](C(=O)Nc2cc3cc(-c4cnc5c(c4C)NCCO5)c(F)cc3cn2)[C@H]1c1cnn(C)c1 (single isomer, unassigned) [Compound 301c] | 232

Same assay, conditions: assayed concentration 2.778 μM; anti-CD3/anti-CD28 stimulation

Row | Structure (SMILES) | % IL-2 increase relative to untreated cells [%]
2 | Cc1c(-c2cc3cc(NC(=O)OC4CC5(CCNCC5)C4)ncc3cc2F)cnc2c1NCCO2 [Compound 113, 7-Azaspiro[3.5]nonan-2-yl (7-fluoro-6-(8-methyl-2,3-dihydro-1H-pyrido[2,3-b][1,4]oxazin-7-yl)isoquinolin-3-yl)carbamate] | 702
3 | Cc1c(-c2cc3cc(NC(=O)N[C@H](C)c4cnn(C)c4)ncc3cc2F)cnc2c1NCCO2 [Compound 201a, (R)-1-(7-Fluoro-6-(8-methyl-2,3-dihydro-1H-pyrido[2,3-b][1,4]oxazin-7-yl)isoquinolin-3-yl)-3-(1-(1-methyl-1H-pyrazol-4-yl)ethyl)urea] | 145

The molecules below were run against HPK1 (Homo sapiens (Human), UniProt Q92918, S171E/T165E) (assay: HPK1-FL HTRF Enzymatic Assay ("HTRF")). Details: HPK full length, ATP 1 mM.
Chain of HPK1 (Q92918 whole entry T165E/S171E): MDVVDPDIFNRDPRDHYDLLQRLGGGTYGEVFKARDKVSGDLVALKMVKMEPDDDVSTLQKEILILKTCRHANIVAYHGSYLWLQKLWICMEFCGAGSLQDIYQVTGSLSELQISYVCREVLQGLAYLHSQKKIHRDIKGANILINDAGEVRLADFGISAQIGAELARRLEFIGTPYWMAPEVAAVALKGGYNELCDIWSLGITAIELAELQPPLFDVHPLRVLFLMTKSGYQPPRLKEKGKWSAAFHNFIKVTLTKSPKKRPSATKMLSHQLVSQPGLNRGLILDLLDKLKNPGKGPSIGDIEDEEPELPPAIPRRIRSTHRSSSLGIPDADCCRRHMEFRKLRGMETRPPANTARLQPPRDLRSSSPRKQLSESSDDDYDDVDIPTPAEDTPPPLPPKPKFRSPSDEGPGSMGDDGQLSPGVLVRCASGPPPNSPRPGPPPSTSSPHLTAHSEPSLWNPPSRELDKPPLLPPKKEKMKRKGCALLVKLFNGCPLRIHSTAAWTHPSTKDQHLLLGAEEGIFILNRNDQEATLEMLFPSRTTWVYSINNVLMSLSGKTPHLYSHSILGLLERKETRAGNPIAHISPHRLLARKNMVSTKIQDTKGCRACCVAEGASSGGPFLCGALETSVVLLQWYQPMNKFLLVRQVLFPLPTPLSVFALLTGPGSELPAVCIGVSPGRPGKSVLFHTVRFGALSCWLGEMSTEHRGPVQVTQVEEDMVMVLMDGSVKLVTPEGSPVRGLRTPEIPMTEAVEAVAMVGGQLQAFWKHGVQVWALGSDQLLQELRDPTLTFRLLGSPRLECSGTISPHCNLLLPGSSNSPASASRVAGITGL
Format: biochemical
Method: HPK1-FL HTRF Enzymatic Assay (“HTRF”)
HPK-FL enzyme phosphorylates Biotin-SLP-76 substrate in the presence of ATP at 1 mM and varying concentrations of test compound. Product is detected by FRET using Eu-anti-pSLP76 Ab and SA-XL665. Also see www.cisbio.com/HTRF for additional HTRF technology information.
Instrumentation: Echo555 compound dispenser; Agilent Bravo; Perkin Elmer Envision.
To a 384 well Proxiplate with 80 nL compound or DMSO spotted on was added 4 μl/well kinase mix. The mixture was preincubated for 30 minutes and then 4 μl/well substrate mix was added. The solution was incubated for 60 min and then 4 μl/well detection mix was added. The solution was incubated for another 60 min. The plates were then loaded onto a
Perkin Elmer Envision and the TR-FRET signal was measured at […] and 665 nm. A ratio of 665/620 was used to calculate the % activity at each concentration of compound.

Row | Ki [nM] | Structure (SMILES)
4 | 0.06 | CC[C@@H]1[C@H](C(=O)Nc2cc3cc(-c4cnc5c(c4C)NCCO5)c(F)cc3cn2)[C@H]1c1cnn(C)c1 (single isomer, unassigned) [Compound 301c]
5 | 0.27 | Cc1c(-c2cc3cc(NC(=O)OC4CC5(CCNCC5)C4)ncc3cc2F)cnc2c1NCCO2 [Compound 113, 7-Azaspiro[3.5]nonan-2-yl (7-fluoro-6-(8-methyl-2,3-dihydro-1H-pyrido[2,3-b][1,4]oxazin-7-yl)isoquinolin-3-yl)carbamate]
6 | 0.34 | Cc1c(-c2cc3cc(NC(=O)OC4CC5(CNC5)C4)ncc3cc2F)cnc2c1NCCO2 [Compound 125, 2-Azaspiro[3.3]heptan-6-yl (7-fluoro-6-(8-methyl-2,3-dihydro-1H-pyrido[2,3-b][1,4]oxazin-7-yl)isoquinolin-3-yl)carbamate]
7 | 0.58 | Cc1c(-c2cc3cc(NC(=O)O[C@H]4[C@@H]5CNC[C@@H]54)ncc3cc2F)cnc2c1NCCO2 [Compound 129a, (1R,5S,6s)-3-Azabicyclo[3.1.0]hexan-6-yl (7-fluoro-6-(8-methyl-2,3-dihydro-1H-pyrido[2,3-b][1,4]oxazin-7-yl)isoquinolin-3-yl)carbamate]
8 | 4.1 | Cc1c(-c2cc3cc(NC(=O)OC4CS(=O)(=O)C4)ncc3cc2F)cnc2c1NCCO2 [Compound 130, 1,1-Dioxidothientan-3-yl (7-fluoro-6-(8-methyl-2,3-dihydro-1H-pyrido[2,3-b][1,4]oxazin-7-yl)isoquinolin-3-yl)carbamate]
9 | 1.15 | Cc1c(-c2cc3cc(NC(=O)OC4CC5(C4)CN(C)C5)ncc3cc2F)cnc2c1NCCC2 [Compound 132, 2-Methyl-2-azaspiro[3.3]heptan-6-yl (7-fluoro-6-(4-methyl-5,6,7,8-tetrahydro-1,5-naphthyridin-3-yl)isoquinolin-3-yl)carbamate]
10 | 1.07 | Cc1c(-c2cc3cc(NC(=O)OC4CC5(CCN(C)CC5)C4)ncc3cc2F)cnc2c1NCCC2 [Compound 133, 7-Methyl-7-azaspiro[3.5]nonan-2-yl (7-fluoro-6-(4-methyl-5,6,7,8-tetrahydro-1,5-naphthyridin-3-yl)isoquinolin-3-yl)carbamate]
11 | 0.47 | Cc1c(-c2cc3cc(NC(=O)OC4CC5(CCNC5)C4)ncc3cc2F)cnc2c1NCCO2 (centres unmarked) [Compound 134, 6-Azaspiro[3.4]octan-2-yl (7-fluoro-6-(8-methyl-2,3-dihydro-1H-pyrido[2,3-b][1,4]oxazin-7-yl)isoquinolin-3-yl)carbamate]
12 | 0.5 | Cc1c(-c2cc3cc(NC(=O)NCC4CC4)ncc3cc2F)cnc2c1NCCO2 [Compound 202, 1-(Cyclopropylmethyl)-3-(7-fluoro-6-(8-methyl-2,3-dihydro-1H-pyrido[2,3-b][1,4]oxazin-7-yl)isoquinolin-3-yl)urea]
13 | 0.83 | Cc1c(-c2cc3cc(NC(=O)NC4CCOCC4)ncc3cc2F)cnc2c1NCCO2 [Compound 204, 1-(7-Fluoro-6-(8-methyl-2,3-dihydro-1H-pyrido[2,3-b][1,4]oxazin-7-yl)isoquinolin-3-yl)-3-(tetrahydro-2H-pyran-4-yl)urea]
14 | 0.76 | Cc1c(-c2cc3cc(NC(=O)NC4CNC4)ncc3cc2F)cnc2c1NCCO2 [Compound 205, 1-(Azetidin-3-yl)-3-(7-fluoro-6-(8-methyl-2,3-dihydro-1H-pyrido[2,3-b][1,4]oxazin-7-yl)isoquinolin-3-yl)urea]
15 | 0.2 | Cc1c(-c2cc3cc(NC(=O)NC4CC4)ncc3cc2F)cnc2c1NCCO2 [Compound 207, 1-Cyclopropyl-3-(7-fluoro-6-(8-methyl-2,3-dihydro-1H-pyrido[2,3-b][1,4]oxazin-7-yl)isoquinolin-3-yl)urea]

Row | Structure (SMILES) | Ki [nM]
16 | CC[C@@H]1[C@H](C(=O)Nc2cc3cc(-c4c[n+]([O-])ccc4C)c(F)cc3cn2)[C@H]1c1cnn(C)c1 [Compound 302a, 3-(3-((1S,2S,3S)-2-Ethyl-3-(1-methyl-1H-pyrazol-4-yl)cyclopropane-1-carboxamido)-7-fluoroisoquinolin-6-yl)-4-methylpyridine 1-oxide] | 1280
17 | CC[C@H]1[C@H](C(=O)Nc2cc3cc(-c4c[n+]([O-])ccc4C)c(F)cc3cn2)[C@H]1c1cnn(C)c1 [Compound 302b, 3-(3-((1S,2R,3S)-2-Ethyl-3-(1-methyl-1H-pyrazol-4-yl)cyclopropane-1-carboxamido)-7-fluoroisoquinolin-6-yl)-4-methylpyridine 1-oxide] | 2000
